Source: US6825197B2, “Cyclic GMP-specific phosphodiesterase inhibitors” (Lilly ICOS LLC, priority 2000, dated 2004)

Legend:
recombinant human PDE5 = molecular target: T1, recombinant human PDE5 (Homo sapiens, UniProt O76074); test: Inhibitory effect on cGMP-PDE (PDE5 inhibition, one-step assay); type: biochemical; conditions: in vitro test; human recombinant PDE5, 0.15 μM 8-[H3]-cGMP, 30 minutes incubation; read-out: IC50 values versus PDE5
T1 construct: host or cells: Saccharomyces cerevisiae strain BJ2-54 (ATCC 74465), described as an exemplary method
Procedure: The compounds of structural formula (I) were tested for an ability to inhibit PDE5. The ability of a compound to inhibit PDE5 activity is related to the IC50 value for the compound, i.e., the concentration of inhibitor required for 50% inhibition of enzyme activity. The IC50 value for compounds of structural formula (I) were determined using recombinant human PDE5.
The production of recombinant human PDEs and the IC50 determinations can be accomplished by well-known methods in the art. Exemplary methods are described as follows:
Phosphodiesterase activity of the preparations was determined as follows. PDE assays utilizing a charcoal separation technique were performed essentially as described in Loughney et al. (1996). […] The [32P]5′-AMP or [32P]5′-GMP then was quantitatively converted to free [32P] phosphate and unlabeled adenosine or guanosine by the action of snake venom 5′-nucleotidase. […] PDE enzyme was present in quantities that yield <30% total hydrolysis of substrate (linear assay conditions). […] After centrifugation (750×g for 3 minutes) to sediment the charcoal, a sample of the supernatant was taken for radioactivity determination in a scintillation counter and the PDE activity was calculated.
cGMP-PDE activity of compounds of the present invention was measured using a one-step assay adapted from Wells et al., Biochim. […]

Compound | IC50 (recombinant human PDE5) [nM] | melting point [°C]
O=C1[C@H]2Cc3c([nH]c4ccccc34)[C@@H](c3ccc4c(c3)OCO4)N2C(=O)C2CNCCN12 (mixture of isomers) [Example 1, (5aR,12R)-12-Benzo(1,3)dioxol-5-yl-5,5a,8,9,10,10a,12,13-octahydro-7H-6a,9,11a,13-tetraza-indeno[1,2-b]anthracene-6,11-dione] | 1.7 | 226 to 237
COc1ccc(CC(=O)N2CCN3C(=O)[C@H]4Cc5c([nH]c6ccccc56)[C@@H](c5ccc6c(c5)OCO6)N4C(=O)C3C2)cc1OC (stereo partly drawn) [Example 3, (5aR,12R)-12-Benzo(1,3)dioxol-5-yl-9-[2-(3,4-dimethoxyphenyl)ethanoyl]-5,5a,8,9, 10, 10a,12,13-octahydro-7H-6a,9,11a,13-tetraaza-indeno[1,2-b]anthracene-6,11-dione] | 3.9 | 284 to 289
